Reference: patent US20240261315A1 (Omikron Italia S.r.l., priority 2021, published 2024)

Columns and labels:
[1] = tested on: glaucomatous patients; conditions: citicoline intramuscularly, 10-year follow-up; cited from earlier work
[2] = tested on: synaptophysin; assay: Synaptophysin quantification by immunofluorescence in retina of db/db mice; assay type: in vivo; conditions: vs placebo and healthy control
Text: (§1) The db/db mice have a mutation in the leptin receptor gene and they are an animal model of retinal neurodegeneration. Such model is useful to mime the pathophysiological events which are found in neurodegenerative pathologies such as glaucoma.
(§2) 20 db/db […] (BKS.Cg-+Leprdb/+Leprdb/OlaHsd, males, 10 weeks) were randomized in 5 groups and treated for 15 days by oral route with oral solutions based on: • 1. Citicoline 0.5% (Cit.) in 10% lactose solution administered with nasogastric tube (SNG); • 2. […] 10% lactose solution (Placebo) administered with SNG; • 5. Healthy, non-diabetic control (Control).
(v) The quantification of caspase-3 and of synaptophysin was performed by means of immunofluorescence. The sections were fixed in methanol (20° C.) for 1 min and washed with buffered saline solution (PBS) 0.01 M at pH 7.4. Then, the sections were incubated in 10% solution NGS, 0.1% Triton X-100, PBS for 1 hour at room environment and subsequently incubated with a specific primary antibody (respectively anti-caspase-3 and anti-synaptophysin monoclonal antibody of rabbit) one night at 4° C. […] Five fields (three corresponding to the central retina and two to the peripheral one) were analysed. The fluorescence intensity of images was quantified with software ImageJ.

[3] = tested on: layer of the RNFL nerve fibres; assay: Clinical observation: RNFL thickness by SD-OCT; assay type: in vivo, human; conditions: after 6 months of treatment, in addition to hypotensive therapy, 3 patients
Description: 12 randomized patients were included in 4 groups: • CIT. GROUP-3 patients treated with citicoline in oral solution 10 ml/die corresponding to 500 mg/die of citicoline, in addition to the hypotensive therapy; • NIC. […] The patients were treated and followed for 6 months. At baseline and after 6 months of treatment complete eye examination including visual acuity, control of the intraocular pressure (IOP) with Goldmann tonometry (GAT); visual field testing, electro-functional and morphological examination were performed. (3) The evaluation of the thickness of the layer of the RNFL nerve fibres was performed with spectral-domain optical coherence tomography SD-OCT (RTVue Model-RT100 version 3.5; Optovue Inc, Fremont, CA, USA). Such analysis allows a tomographic survey of retina capable of highlighting, through high-resolution cross sections, structural details of the cellular layers and of their plexuses and allows a qualitative and quantitative analysis of the retinal alterations. The patients were positioned in front of the instrument and invited to observe a luminous target: the instrument, once the ocular structure to be analysed is focused, performs the scanning.

[4] = tested on: patients affected by open-angle glaucoma; assay: Clinical observation: visual field testing by automatic perimetry (MD); assay type: in vivo, human; conditions: for change in MD: 6 months, vs baseline or not treated group; for MD: after 6 months of treatment, in addition to hypotensive therapy, 3 patients
Description: 12 randomized patients were included in 4 groups: • CIT. GROUP-3 patients treated with citicoline in oral solution 10 ml/die corresponding to 500 mg/die of citicoline, in addition to the hypotensive therapy; • NIC. […] The patients were treated and followed for 6 months. At baseline and after 6 months of treatment complete eye examination including visual acuity, control of the intraocular pressure (IOP) with Goldmann tonometry (GAT); visual field testing, electro-functional and morphological examination were performed. (1) The visual field testing was performed with automatic perimetry (HFA, Sita Standard 24-2 protocol; Zeiss, San Leandro, CA, USA). Such analysis represents the gold standard for diagnosis and follow-up of the glaucomatous patient and allows to represent graphically the extension in the space of the visual capability, by measuring even the peripheral vison thereof. Two analyses on each examination were performed and the second test was considered for the analysis. To perform the test, the patients were positioned in front of the instrument. After having rested forehead and chin inside the dome, with the covered unexamined eye, they started to fix a central target and pressed a button whenever they perceived against themselves aluminous stimulus, even if with poor intensity. MD was considered as perimetric index.

[5] = in five days; cited from earlier work
[6] = tested on: patients with controlled IOP; conditions: oral citicoline, patients with IOP <18 mmHg on b-blockers; cited from earlier work
[7] = tested on: apoptotic cells in the GCL retinal layer; assay: TUNEL assay of cellular apoptosis in retina of db/db mice; assay type: in vivo; conditions: vs vehicle
Text: as §1, §2
(iv) The search for events of cellular apoptosis was performed through TUNEL assay by using the kit DeadEnd™ Fluorometric TUNEL System (PROMEGA, Madison, WI, USA). The TUNEL (Terminal Transferase dUTP Nick-End Labeling) colouring was performed by using the Kit system TUNEL Fluorometric DeadEnd (PROMEGA, Madison, WI, USA). Cryosections of retina were permeabilized by incubation for 2 minutes on ice with 0.1% Triton X-100 in 0.1% sodium citrate. The secondary antibody was Alexa 488 goat-anti-rabbit. For the evaluation by means of confocal laser scanning microscopy the excitation wavelength was 488 nm (detection in the range 515-565 nm (green)).

[8] = parameters: species or system Sprague-Dawley rats; conditions: male, Sprague-Dawley, rat, in vivo
Description: The bioavailability of citicoline existing in the composition, the invention relates to, was surveyed by making a bioavailability study on Sprague-Dawley rats. In particular, 30 Sprague-Dawley male rats, weighing 175 and 225 g, were subjected fasting 16 hours before administration.
For the preparation of the radiomarked formulations 14C-methylCiticoline and […] were used.
The preparations were purified by ion-exchange chromatography by using isobutyric acid:water-ammonia:EDTA (500:280:21:8), n-butanol:acetic acid:water (12:3:5), ethanol:1 mol/l ammonium acetate pH 7 (5:2), ethanol:saturated borax (8%):0.5 mol/l EDTA:5 mol/l ammonium acetate (220:80:0.5:20).
The samples were analysed with a liquid scintillator counter LSC, according to the programme for ^14C.
For the quantitative analysis Packard soluene (solubilizing agent), H2O2 (bleaching agent) and Packard Instagel (scintillator) were used as reagents.
The formulations were administered at the dose of 5 mg/kg respectively: Group 1, intravenously in the jugular vein; Group 2, in oral solution administered by nasogastric tube; Group 3, in tablets dissolved in saline solution and administered by nasogastric tube.
The collections of blood samples of about […] were obtained at programmed time (after administration at 10′, 20′, 30′, 1 h, 2 h, 3 h, 4 h, 5 h, 6 h, 7 h, 24 h). […]

| Structure (SMILES) | perimetric defect (areas of not perception) [1] | levels of synaptophysin [2] | RNFL-TO [3] | change in MD [4] | MD [4] | elimination of the marked products [5] [%] | latency time of VEP [6] | width of PERG signal [6] | apoptosis in GCL retinal layer (TUNEL) [7] | bioavailability [8] [%] |
| --- | --- | --- | --- | --- | --- | --- | --- | --- | --- | --- |
| C[N+](C)(C)CCOP(=O)([O-])OP(=O)(O)OC[C@H]1O[C@@H](n2ccc(N)nc2=O)C(O)C1O (stereo partly shown) [Citicoline, citidin-5′-difosfocholine] | reduction of the perimetric defect | statistically significant increase in the levels of synaptophysin | 65.0 (±12.0) | significant improvement in MD with respect to the baseline | −8.70 (±2.8) | 16 | decrease in latency time of VEP | improvement in the width of PERG signal | lower apoptosis rate with respect to the diabetic mice treated with the vehicle | ~100 |
| NC(=O)c1cccnc1 [Nicotinamide] | – | statistically significant increase in the levels of synaptophysin | 61.1 (±12.5) | lower reduction in the MD value with respect to the not treated group | −8.92 (±2.6)*^ | – | – | – | lower apoptosis levels than the diabetic mice treated with the vehicle but with not statistically significant levels | ~100 |
